Assay results as given in ChEMBL document CHEMBL6120996, “Discovery and optimization of 1,2,4-triazole derivatives as novel ferroptosis inhibitors” (Eur J Med Chem, 2025).
Active and inactive are the calls of the source. The rule behind the calls is not given here.

Tests used:
786-0 = experiment: Metal chelating activity assessed as Fe2+ chelation in human 786-0 cells assessed as intracellular ferrous ion level at 100 uM by FerroOrange fluorescent probe based assay; type: cell-based
[1] = Metal chelating activity assessed as Fe2+ chelation assessed as absorbance peak at 430 nm by UV-vis spectroscopy; details: dose 1.0 µM
[2] = Microsomal stability in human liver microsomes assessed as hepatic extraction ratio at 1 uM by LC-MS/MS analysis; type: ADME, Microsome; details: read-out: ERH
[3] = Microsomal stability in human liver microsomes assessed as hepatic clearance at 1 uM by LC-MS/MS analysis; type: ADME, Microsome
[4] = Microsomal stability in rat liver microsomes assessed as hepatic extraction ratio at 1 uM by LC-MS/MS analysis; type: ADME, Microsome; details: read-out: ERH

| SMILES | Activity (786-0) | Activity [1] | hepatic extraction ratio at 1 µM [2] | CLhep predicted at 1 µM [3] [mL/min/kg] | hepatic extraction ratio at 1 µM [4] |
| --- | --- | --- | --- | --- | --- |
| CC(=O)N(O)CCCCCNC(=O)CCC(=O)N(O)CCCCCNC(=O)CCC(=O)N(O)CCCCCN | Active | Active |  |  |  |
| C[C@]12CC[C@H]3[C@@H](CCC4=CC(=O)CC[C@@]43C)[C@@H]1CC[C@@H]2O [TESTOSTERONE] |  |  | 0.935 | 19.3 | 0.994 |
